Measured values reported in article PMC12175177 (Frontiers in Pharmacology, 2025).
≈ marks a conversion by molar mass, not a printed value. Counter-ions that a name gives are not always drawn. Like-named read-outs stand apart in the source and are kept apart here.

Key:
Type in all cases: cell-based
SARS-CoV-2 A2.5 variant [1] = experiment: microbe, parasite or virus in culture
[2] = test system: SARS-CoV-2 Delta variant (SEQ203); details: at MNCC, 48 h, 1x
[3] = test system: SARS-CoV-2 Delta variant (SEQ203); details: for % inhibition Vero E6 Delta MOI 0.0001 / % inhibition Vero E6 Delta MOI 0.01: at MNCC, 48 h; for % inhibition Vero E6 Delta MOI 0.0001: 1x; for % inhibition Vero E6 Delta MOI 0.01: mean 2x
[4] = test system: SARS-CoV-2 A2.5 variant (M2169); details: for % inhibition Calu-3 A2.5 MOI 0.01: at MNCC, 48 h, mean 2x
[5] = test system: SARS-CoV-2 A2.5 variant (M2169); details: for % inhibition Vero E6 A2.5 MOI 0.01: at MNCC, 48 h, 1x
SARS-CoV-2 Delta variant [6] = test system: SARS-CoV-2 Delta variant
SARS-CoV-2 A2.5 variant [7] = test system: SARS-CoV-2 A2.5 variant
SARS-CoV-2 Delta variant [8] = test system: SARS-CoV-2 Delta variant; remark: listed apart in the source
[9] = Severe acute respiratory syndrome coronavirus 2, Vero C1008, 72 h, read-out: IC50%
[10] = Severe acute respiratory syndrome coronavirus 2, Vero C1008, 72 h, read-out: IC50% in µg/mL
[11] = Severe acute respiratory syndrome coronavirus 2, Vero C1008, read-out: IC50 (Figure 4 curve)
[12] = Severe acute respiratory syndrome coronavirus 2, Vero C1008, read-out: IC90%
[13] = Severe acute respiratory syndrome coronavirus 2, Vero C1008, read-out: IC90% in µg/mL

Row | SMILES | IC50 (SARS-CoV-2 A2.5 variant [1]; [9]) | IC50 (SARS-CoV-2 A2.5 variant [1]; [10]) | IC50 (SARS-CoV-2 A2.5 variant [1]; [11]) | IC90 (SARS-CoV-2 A2.5 variant [1]; [12]) | IC90 (SARS-CoV-2 A2.5 variant [1]; [13]) | % inhibition Calu-3 Delta MOI 0.01 [2] | less potent against the Delta compared to the A2.5 variant [3] | % inhibition Vero E6 Delta MOI 0.0001 [3] | % inhibition Vero E6 Delta MOI 0.01 [3] | % inhibition Calu-3 A2.5 MOI 0.01 [4] | % inhibition Vero E6 A2.5 MOI 0.01 [5] | period of most of the inhibitory effect, Delta (SARS-CoV-2 Delta variant [6]) | period of most of the inhibitory effect, A2.5 (SARS-CoV-2 A2.5 variant [7]) | antiviral effect, treatment 1 hour post-infection, Delta (SARS-CoV-2 Delta variant [8]) | effect on viral replication, treatment 1 hour pre-infection, Delta (SARS-CoV-2 Delta variant [8]) | further results
1 | CCN(CCO)CCCC(C)Nc1ccnc2cc(Cl)ccc12 (stereo not shown) [Hydroxychloroquine sulfate (HCQ), Hydroxychloroquine sulfate] | 12.6 µM | 5.8 µg/mL | 13.3 µM | 113 µM | 38.1 µg/mL | 9% | 40% | 43% | 10% | 16% | 29% | – | – | – | – | % inhibition Calu-3 Delta MOI 0.01 ([2]; listed as HCQ): effective; times more potent against A2.5 than Delta ([5]; Vero-E6): 1.8 times
2 | CC[C@H](C)[C@H]1O[C@]2(CC[C@@H]1C)C[C@@H]1C[C@@H](C/C=C(\C)[C@@H](O[C@H]3C[C@H](OC)[C@@H](O[C@H]4C[C@H](OC)[C@@H](O)[C@H](C)O4)[C@H](C)O3)[C@@H](C)/C=C/C=C3\CO[C@@H]4[C@H](O)C(C)=C[C@@H](C(=O)O1)[C@]34O)O2 [Ivermectin (IVM), Ivermectin] | – | – | – | – | – | 17% | – | 19% | 11% | 15% | 5% | – | – | – | – | IC50% (SARS-CoV-2 A2.5 variant [1]): 63.6 µg/mL (≈ 72.7 µM); IC50 (SARS-CoV-2 A2.5 variant [1]; read-out: IC50%): 72.7 µM
3 | CCN(CC)CCCC(C)Nc1ccnc2cc(Cl)ccc12 (stereo not shown) [Chloroquine diphosphate (CQ), Chloroquine diphosphate] | 6.3 µM | 2 µg/mL | 6.27 µM | 56.7 µM | 18.1 µg/mL | – | 20% | 44% | – | – | – | during the adsorption phase | during the adsorption phase | dose-dependent antiviral effect | did not influence the viral replication | less susceptible to CQ than to PQ, Delta (SARS-CoV-2 Delta variant [6]; Vero-E6, same time interval): 2–4 orders of magnitude; antiviral inhibition at MOI = 0.00001 [3]: ≥ 20%; inhibition of A.2.5 infection in Calu-3 compared to camostat (CAM) ([4]; Calu-3): two-fold less; less susceptible to CQ than to PQ, A2.5 (SARS-CoV-2 A2.5 variant [7]; Vero-E6, same time interval): 2–4 orders of magnitude
4 | COc1cc(NC(C)CCCN)c2ncccc2c1 (stereo not shown) [Primaquine Phosphate (PQ), Primaquine Phosphate] | 15.3 µM | 5 µg/mL | 19.3 µM | 138 µM | 35.7 µg/mL | – | – | 2% | 18% | 10% | – | ≤ 5 h | ≤ 3 h | dose-dependent antiviral effect | did not influence the viral replication | effect on viral load, time of addition, Delta (SARS-CoV-2 Delta variant [6]): substantially lower viral load; effect on viral load, time of addition, A2.5 (SARS-CoV-2 A2.5 variant [7]): substantially lower viral load
